Consider 1 compound from ChEMBL document CHEMBL5126611, “Design, Synthesis, and Biological Evaluations of Pyridyl 4,5,6,7-Tetrahydro-4,7-Methanobenzo[d]isoxazoles as Potent and Selective Inhibitors of 11β-Hydroxylase” (J Med Chem, 2022).

Broadly, the IC50 is the point on the concentration scale where inhibition reaches its midpoint. For orientation: AUC(0-inf) means the area under the concentration-time curve extrapolated to infinity. Low readings indicate low exposure, high ones high exposure. The Tmax is the time from dosing to the highest level. For orientation: Cmax means the peak of the concentration-time curve.

Series [1] has as its target Cytochrome P450 2C19 (Homo sapiens, UniProt P33261). As to the kind of experiment: Inhibition of human hepatic recombinant CYP2C19 using cocktail of substrate by LC-MS/MS analysis. The class given is ADME.
For series [2], the target named is T1, Cytochrome P450 11B1, mitochondrial (Homo sapiens, UniProt P15538).
T1 sequence (P15538 whole entry): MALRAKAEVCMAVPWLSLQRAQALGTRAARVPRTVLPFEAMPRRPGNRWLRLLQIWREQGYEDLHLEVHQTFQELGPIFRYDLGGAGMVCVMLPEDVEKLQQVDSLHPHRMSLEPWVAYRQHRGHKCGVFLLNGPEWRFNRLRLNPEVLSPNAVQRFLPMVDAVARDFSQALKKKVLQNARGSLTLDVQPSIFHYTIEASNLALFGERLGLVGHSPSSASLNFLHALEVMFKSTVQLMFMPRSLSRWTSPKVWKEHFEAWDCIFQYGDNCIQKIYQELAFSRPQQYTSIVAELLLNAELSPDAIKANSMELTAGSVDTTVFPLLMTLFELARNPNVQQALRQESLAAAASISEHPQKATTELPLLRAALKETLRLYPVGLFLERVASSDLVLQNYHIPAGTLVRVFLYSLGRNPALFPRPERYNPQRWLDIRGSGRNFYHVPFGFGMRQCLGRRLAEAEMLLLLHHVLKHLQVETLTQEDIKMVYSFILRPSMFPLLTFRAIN
As to the kind of experiment: Inhibition of human CYP11B1 expressed in Chinese hamster V79 MZh cells using [14C]-deoxycorticosteron as substrate measured after 6 hrs by phosphoimager analysis. The format is ADME, cell-based.

Series [3] addresses Cytochrome P450 2D6 (Homo sapiens, UniProt P10635). As to the kind of experiment: Inhibition of human hepatic recombinant CYP2D6 using cocktail of substrate by LC-MS/MS analysis. The format is ADME.
Series [4] can be described thus: Terminal half life in Sprague-Dawley rat at 25 mg/kg, po measured up to 24 hrs by LC-MS analysis. As to conditions: in vivo, read-out: beta t1/2 (converted). The class given is ADME, organism-based.
A short description of series [5]: AUC (0 to infinity) in Sprague-Dawley rat at 25 mg/kg, po measured up to 24 hrs by LC-MS analysis. The format is ADME, organism-based. More on the design: dose 25 mg/kg, time < 24 hrs, route po. As to conditions: in vivo.
Series [6] in a line: Selectivity ratio of IC50 for inhibition of rat CYP11B2 to IC50 for inhibition of rat CYP11B1. The format is ADME.
The nature of series [7]: Tmax in Sprague-Dawley rat at 5 mg/kg, iv measured up to 24 hrs by LC-MS analysis. The class given is ADME, organism-based. As to conditions: in vivo.
For series [8], the target named is T2, Steroid 17-alpha-hydroxylase/17,20 lyase (Homo sapiens, UniProt P05093).
T2 sequence (P05093 whole entry): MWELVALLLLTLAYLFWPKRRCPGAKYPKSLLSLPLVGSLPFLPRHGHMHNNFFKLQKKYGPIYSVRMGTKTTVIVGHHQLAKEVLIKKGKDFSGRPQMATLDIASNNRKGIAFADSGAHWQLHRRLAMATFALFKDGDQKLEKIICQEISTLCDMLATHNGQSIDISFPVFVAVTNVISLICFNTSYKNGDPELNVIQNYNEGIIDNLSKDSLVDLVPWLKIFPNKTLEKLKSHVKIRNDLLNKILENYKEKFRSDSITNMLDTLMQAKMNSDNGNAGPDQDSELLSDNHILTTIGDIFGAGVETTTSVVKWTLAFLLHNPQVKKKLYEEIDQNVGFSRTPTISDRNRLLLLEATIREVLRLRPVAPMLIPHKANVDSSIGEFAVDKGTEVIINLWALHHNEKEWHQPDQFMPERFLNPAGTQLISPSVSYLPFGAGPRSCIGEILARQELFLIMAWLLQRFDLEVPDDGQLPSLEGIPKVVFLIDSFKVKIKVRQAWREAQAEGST
As to the kind of experiment: Inhibition of human CYP17 expressed in Escherichia coli. The class given is ADME.

Series [9] can be described thus: Cmax in Sprague-Dawley rat at 25 mg/kg, po measured up to 24 hrs by LC-MS analysis. More on the design: dose 25 mg/kg, time < 24 hrs, route po. The class given is ADME, organism-based. As to conditions: in vivo.

A value given as a limit tells only on which side of the number the result lay.

Cytochrome P450 2C19, sequence (P33261 whole entry): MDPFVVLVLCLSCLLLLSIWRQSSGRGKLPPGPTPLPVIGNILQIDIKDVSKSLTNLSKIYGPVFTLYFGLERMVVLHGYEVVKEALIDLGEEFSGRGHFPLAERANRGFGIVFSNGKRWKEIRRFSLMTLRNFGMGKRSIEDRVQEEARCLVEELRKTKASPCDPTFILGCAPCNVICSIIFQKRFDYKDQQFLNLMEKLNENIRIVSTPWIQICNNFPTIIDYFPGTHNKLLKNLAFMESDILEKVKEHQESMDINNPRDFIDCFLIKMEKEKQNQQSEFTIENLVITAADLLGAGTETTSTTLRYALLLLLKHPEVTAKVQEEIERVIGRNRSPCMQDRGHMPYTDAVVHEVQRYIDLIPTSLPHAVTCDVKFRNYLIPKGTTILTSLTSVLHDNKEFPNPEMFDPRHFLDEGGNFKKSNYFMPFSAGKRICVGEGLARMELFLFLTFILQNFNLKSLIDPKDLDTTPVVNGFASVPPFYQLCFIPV
Cytochrome P450 2D6, sequence (P10635 whole entry): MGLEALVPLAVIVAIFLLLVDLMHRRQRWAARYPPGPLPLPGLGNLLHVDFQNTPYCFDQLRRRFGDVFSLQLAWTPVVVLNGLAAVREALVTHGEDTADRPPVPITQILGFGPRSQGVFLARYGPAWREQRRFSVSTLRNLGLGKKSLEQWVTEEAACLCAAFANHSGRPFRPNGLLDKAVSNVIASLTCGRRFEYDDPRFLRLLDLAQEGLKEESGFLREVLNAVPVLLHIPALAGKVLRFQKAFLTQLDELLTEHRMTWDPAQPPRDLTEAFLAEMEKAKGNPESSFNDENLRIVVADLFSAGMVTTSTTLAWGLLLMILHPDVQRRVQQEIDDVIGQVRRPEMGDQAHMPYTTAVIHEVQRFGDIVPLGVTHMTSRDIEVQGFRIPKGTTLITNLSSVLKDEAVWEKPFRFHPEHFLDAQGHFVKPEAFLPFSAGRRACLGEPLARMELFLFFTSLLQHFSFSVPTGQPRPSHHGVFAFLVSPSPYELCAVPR

Consider `O=C(Nc1ccc2[nH]ncc2c1)[C@]12ON=C(c3cccnc3)[C@H]1[C@@H]1CC[C@H]2C1`, for which the IC50 in [1] was over 10 µM; in [2] it was 0.009 µM; in series [3], over 10 µM; in series [8] it was over 10 µM. Further, in series [4], the half-life is 4.6 h. Further, in series [5], the AUC(0-inf) turned out to be 54500 ng·h/mL. For the same compound, the “Ratio IC50” value in [6] was found to be 81. The Tmax in series [7] was 0 h. Further, in series [9], the Cmax stood at 7990 ng/mL.
